This is an account of results in PMC2653189 (PLoS ONE, 2009).

The subject of assay [1] is IFN-γ-mediated Stat1 phosphorylation. Briefly: Immunoblot of IFN-γ-mediated Stat1 phosphorylation in HepG2 cells. Particulars: compound 300 µM 1 hour, IFN-γ 30 ng/ml 30 min. It is filed as cell-based, human. On the procedure:
(§1) The human hepatocellular carcinoma cell line (HepG2) was grown in 6-well plates under standard conditions. Cells were pretreated with compounds (0, 1, 3, 10, 30, 100 and 300 µM) for 1 hour then stimulated under optimal conditions with either interleukin-6 (IL-6; 30 ng/ml for 30 min) to activate Stat3 or interferon gamma (IFN-γ; 30 ng/ml for 30 min) to activate Stat1 [28]. Cultures were then harvested and proteins extracted using high-salt buffer, as described. Briefly, extracts were mixed with 2× sodium dodecyl sulfate (SDS) sample buffer (125 mM Tris-HCL pH 6.8; 4% SDS; 20% glycerol; 10% 2-mercaptoethanol) at a 1∶1 ratio and heated for 5 minutes at 100°C. Proteins (20 µg) were separated by 7.5% SDS-PAGE and transferred to polyvinylidene fluoride (PVDF) membrane (Millipore, Waltham, MA) and immunoblotted. Prestained molecular weight markers (BioRad; Hercules, CA) were included in each gel. Membranes were probed serially with antibody against Stat1 pY701 or Stat3 pY705 followed by antibody against Stat1 or Stat3 (Transduction labs, Lexington, KY) then antibody against β–actin (Abcam, Cambridge, MA). Membranes were stripped between antibody probing using Restore™ Western Blot Stripping Buffer (Thermo Fisher Scientific Inc., Waltham, MA) per the manufacturer's instructions. Horseradish peroxidase-conjugated goat-anti-mouse IgG was used as the secondary antibody (Invitrogen Carlsbad, CA) and the membranes were developed with enhanced chemiluminescence (ECL) detection system (Amersham Life Sciences Inc.; Arlington Heights, IL.).
Figure 2 Effect of compounds on ligand-mediated Stat3 and Stat1 phosphorylation. […] Cells were then stimulated with IL-6 (30 ng/ml) for 30 min. Protein extracts of cells were separated by SDS-PAGE, blotted and developed serially with antibodies to pStat3, total Stat3 and β-actin. Blots were stripped between each antibody probing. Band intensities were quantified by densitometry. The value of each pStat3 band was divided by its corresponding total Stat3 band intensity; the results were normalized to the DMSO-treated control value. This value was plotted as a function of the log compound concentration. The best-fitting curve was determined using 4-Parameter Logistic Model/Dose Response/XLfit 4.2, IDBS software and was used to calculate the IC50 value (Table 1). Each panel is representative of 3 or more experiments. In panel G, HepG2 cells were pretreated with DMSO alone or DMSO containing each of the compounds at a concentration of 300 µM for 60 min. Cells were then stimulated with IFN-γ (30 ng/ml) for 30 min. Protein extracts of cells were separated by SDS-PAGE and immunoblotted serially with antibodies to pStat1, total Stat1 and β-actin. Blots were stripped between each immunoblotting. The results shown are representative of 2 or more experiments.

The subject of assay [2] is IL-6-mediated Stat3 nuclear translocation (GFP-Stat3α). Briefly: HTFM nuclear translocation assay in MEF/GFP-Stat3α cells. The conditions noted are these: Mus musculus, compound 1 hour, then IL-6 200 ng/ml and IL-6sR 250 ng/ml 30 min, read-out: HTFM IC50, inhibition of IL-6-mediated Stat3 nuclear translocation. The format is cell-based, murine. How it is done:
Confocal and high-throughput fluorescence microscopy (HTFM) of MEF/GFP-Stat3α cells were performed as described. Briefly, for confocal fluorescence microscopy, cells were grown in 6-well plates containing a cover slip. For HTFM, cells were seeded into 96-well CC3 plates at a density of 5,000 cells/well using an automated plating system. Cells were cultured under standard conditions until 85–90% confluent. Cells were pre-treated with compound for 1 hour at 37°C then stimulated with IL-6 (200 ng/ml) and IL-6sR (250 ng/ml) for 30 minutes to provide optimal Stat3 activation and nuclear translocation in these cells, as described. Cells were fixed with 4% formaldehyde in PEM Buffer (80 mM Potassium PIPES, pH 6.8, 5 mM EGTA pH 7.0, 2 mM MgCl2) for 30 minutes at 4°C, quenched in 1 mg/ml of NaBH4 (Sigma) in PEM buffer and counterstained for 1 min in 4,6-diamidino-2-phenylindole (DAPI; Sigma; 1 mg/ml) in PEM buffer. Cover slips were examined by confocal fluorescent microscopy. Plates were analyzed by automated HTFM using the Cell Lab IC Image Cytometer (IC100) platform and Cytoshop Version 2.1 analysis software (Beckman Coulter). Nuclear translocation is quantified by using the fraction localized in the nucleus (FLIN) measurement. FLIN values were normalized by subtracting the FLIN for unstimulated cells then dividing this difference by the maximum difference (delta, Δ) in FLIN (FLIN in cells stimulated with IL-6/sIL-6R in the absence of compound minus FLIN of unstimulated cells). This ratio was multiplied by 100 to obtain the percentage of maximum difference in FLIN and was plotted, where indicated, as a function of the log compound concentration. The best-fitting curve and IC50 value were determined using 4-Parameter Logistic Model/Dose Response/XLfit 4.2, IDBS software.
Figure 4 Inhibition of cytoplasmic-to-nuclear translocation of Stat3 assessed by confocal and high-throughput fluorescence microscopy (HTFM). […] Coverslips were examined by confocal fluorescent microscopy using filters to detect GFP (column one), DAPI (column two) or both (merge; column three). In panel B, MEF-GFP-Stat3 cells were grown in 96-well plates with optical glass bottoms and pre-treated with the indicated compound at the indicated concentrations in quadruplicate for 1 hour then stimulated with IL-6 (200 ng/ml) and IL-6sR (250 ng/ml) for 30 minutes. Cells were fixed and the plates were examined by high-throughput microscopy to determine the fluorescence intensity in the nucleus (FLIN). The percent of maximum change (delta, Δ) in FLIN was calculated as described in the Methods and plotted as a function of the log of the compound concentration. […] Best-fit curves were determined using 4-Parameter Logistic Model/Dose Response/XLfit 4.2, IDBS software and were used to calculate the IC50 values (Table 2).

The target in assay [3] is T1, Stat3 (Homo sapiens, UniProt P40763). As to the kind of experiment: Stat3/pY-peptide binding assay (SPR, BIAcore). The conditions noted are these: recombinant Stat3 500 nM; immobilized EGFR Y1068 phosphododecapeptide; 25°C; read-out: SPR IC50, inhibition of Stat3 binding to pY peptide ligand. How it is done: A control (Stat3 with DMSO but without compound) was run at the beginning and the end of each cycle (40 sample injections) to ensure that the integrity of the sensor chip was maintained throughout the cycle run. The average of the two controls was normalized to 100% and used to evaluate the effect of each compound on Stat3 binding. Responses were normalized by dividing the value at 2 min by the response obtained in the absence of compounds at 2 min and multiplying by 100.
T1 sequence (P40763 whole entry, species assumed): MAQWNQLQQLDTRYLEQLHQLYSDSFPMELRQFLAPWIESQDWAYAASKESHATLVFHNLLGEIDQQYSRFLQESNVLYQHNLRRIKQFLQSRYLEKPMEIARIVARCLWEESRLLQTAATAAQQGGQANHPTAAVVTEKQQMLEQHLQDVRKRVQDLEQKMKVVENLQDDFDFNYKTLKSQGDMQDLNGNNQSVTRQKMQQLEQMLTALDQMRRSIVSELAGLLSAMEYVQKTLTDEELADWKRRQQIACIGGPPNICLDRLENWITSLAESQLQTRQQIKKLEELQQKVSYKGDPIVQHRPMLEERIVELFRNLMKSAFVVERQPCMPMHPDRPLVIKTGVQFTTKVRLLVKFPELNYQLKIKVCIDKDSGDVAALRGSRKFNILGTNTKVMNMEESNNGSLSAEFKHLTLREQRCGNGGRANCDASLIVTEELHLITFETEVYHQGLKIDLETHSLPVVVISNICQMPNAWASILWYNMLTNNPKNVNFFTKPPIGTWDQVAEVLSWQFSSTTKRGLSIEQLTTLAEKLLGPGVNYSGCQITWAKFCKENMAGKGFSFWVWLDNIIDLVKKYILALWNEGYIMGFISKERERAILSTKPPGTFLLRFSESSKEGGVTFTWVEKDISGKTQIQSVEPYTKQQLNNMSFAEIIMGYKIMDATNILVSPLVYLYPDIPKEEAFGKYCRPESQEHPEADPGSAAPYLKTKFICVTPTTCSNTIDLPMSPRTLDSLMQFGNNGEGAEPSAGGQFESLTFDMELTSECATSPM
(In general: In SPR one partner is held on a chip, and binding of the other changes the refractive index at the surface.)

Assay [4] relates to breast cancer cell lines tested. As to the kind of experiment: Apoptosis assay, all breast cancer cell lines tested. The format is cell-based, Human. Particulars: any of the breast cancer cell lines tested; data not shown. How it is done: Human breast carcinoma cell lines MDA-MB-468, MDA-MB-231, MBA-MD-435 and MCF7 were kindly provided by Dr. Powel H. Brown (Breast Cancer Center, Baylor College of Medicine). Breast cancer cell line, MDA-MB-453 was kindly provided by Dr. Shou Jiang (Breast Cancer Center, Baylor College of Medicine). All cell lines were grown in DMEM medium supplemented with 10% fetal bovine serum (FBS), 25,000 units penicillin G, 25,000 µg streptomycin, and 131.4 mg L-Glutamine and cultured in the incubator under the condition of 95% air, 5% CO2 at 37°C [33]. Cells were seeded at 2,500 cells/cm^2 into 12-well plates. At 80% confluency, cells were washed with PBS and supplemented with fresh medium containing compound or the topoisomerase I-inhibitor, camptothecin, at 0, 0.1, 0.3, 1, 3, 10, 30, 100, 300 µM. At 24 hours, treatment was terminated by removing the medium from each well. Cells were lysed with cell lysis buffer (600 µl for 30 minutes at 25°C). […] The percent maximum nucleosome level was calculated by dividing the nucleosome level by the maximum nucleosome level achieved in the assay and multiplying by 100. This value was plotted as a function of the log compound concentration and the best-fitting curve and EC50 value determined using 4-Parameter Logistic Model/Dose Response/XLfit 4.2, IDBS software.

The test system of assay [5] is IL-6-mediated phosphorylation of Stat3. As to the kind of experiment: Immunoblot of IL-6-mediated Stat3 phosphorylation in HepG2 cells. It is filed as cell-based. The conditions noted are these: Homo sapiens, compound 60 min, then IL-6 30 ng/ml 30 min, read-out: pStat3 IC50, inhibition of IL-6-mediated Stat3 phosphorylation. How it is done:
as §1
Figure 2 Effect of compounds on ligand-mediated Stat3 and Stat1 phosphorylation. […] Cells were then stimulated with IL-6 (30 ng/ml) for 30 min. Protein extracts of cells were separated by SDS-PAGE, blotted and developed serially with antibodies to pStat3, total Stat3 and β-actin. Blots were stripped between each antibody probing. Band intensities were quantified by densitometry. […] The best-fitting curve was determined using 4-Parameter Logistic Model/Dose Response/XLfit 4.2, IDBS software and was used to calculate the IC50 value (Table 1). […]
A general note: In western blotting, separated proteins are transferred to a membrane and probed.

The subject of the next assay is MDA-MB-231 xenografts. Set-up: method as in PMID 17463090. The conditions noted are these: 5 mg/kg every 2–3 days; cited from earlier work.
Assay [6] addresses T1, Stat3. Details: method as in PMID 16220982. The conditions noted are these: fluorescence polarization; read-out: IC50 inhibition of Stat3 binding to pY-peptide; cited from earlier work. On the technique in general: Polarisation of emitted light reports the rotation of a fluorescent probe.

pIC50: −log10 of the molar value. Where two headings read alike, the source gives them in different places.

As for `CCOc1cc(C=C2C(=O)c3ccccc3C2=O)cc(Cl)c1OCc1cccc(C(=O)O)c1` [Cpd3-2, 3-({2-chloro-4-[(1,3-dioxo-1,3-dihydro-2H-inden-2-ylidene)methyl]-6-ethoxyphenoxy}methyl)benzoic acid], the “Block of IFN-γ-stimulated Stat1 phosphorylation” value in assay [1] is listed as “did not”. Moreover, the results for the pIC50 (in assay [2]; on Stat3 [3]; in assay [5]) were 3.82, 3.59 and 3.84, respectively. Moreover, the “Apoptosis induction (in words)” value in assay [4] was “neither Cpd3-2 nor Cpd3-7 induced apoptosis”.
`Cc1ccc(S(=O)(=O)OCC(=O)Nc2ccc(C(=O)O)c(O)c2)cc1` [S3I-201]: the Xenograft growth entry in the assay on MDA-MB-231 xenografts is “inhibited growth”.
In the case of “hydrocinnamoyl-Tyr(PO3H2)-Leu-cis-3,4-methanoPro-Gln-NHB”, the pIC50 (as a rule, −log10 of the IC50, conventionally taken in molar units) on Stat3 [6] was 6.90.
